The data set in a line: Gravimetric Vapour Sorption (GVS). Type of data set: physicochemical. As for the experimental part: Gravimetric Vapour Sorption (GVS) profiles were measured using a Surface Measurements Systems Dynamic Vapour Sorption DVS-1 or a DVS Advantage instrument. The solid sample ca. 1-5 mg was placed into a glass vessel and the weight of the sample was recorded during a dual cycle step method (40 to 90 to 0 to 90 to 0% relative humidity (RH), in steps of 10% RH).

Counter-ions that a name gives are not always drawn.

In the case of `O[C@](c1ccccc1)(c1cc(C[N+]23CCC(CC2)[C@@H](Oc2cccc(F)c2)C3)on1)C1CCCCC1.[Cl-]` [(R)-1-[3-((R)-Cyclohexyl-hydroxy-phenyl-methyl)-isoxazol-5-ylmethyl]-3-(3-fluoro-phenoxy)-1-azonia-bicyclo[2.2.2]octane chloride], the “GVS mass increase, 1st cycle” value (1st cycle, sample of preparation 1 (step a)) is given as “approximately 5%”. In addition, the “GVS mass increase, 2nd cycle” value (2nd cycle, sample of preparation 1 (step a)) is ~6.5%.
`O[C@](c1ccccc1)(c1cc(C[N+]23CCC(CC2)[C@@H](Oc2cccc(F)c2)C3)on1)C1CCCCC1` [Salt Form A, (R)-1-[3-((R)-cyclohexyl-hydroxy-phenyl-methyl)-isoxazol-5-ylmethyl]-3-(3-fluoro-phenoxy)-1-azonia-bicyclo[2.2.2]octane 2-hydroxy-ethanesulfonate]: the “GVS weight increase at 80% RH” value (80% RH (±0.3%), material of preparation 2) turned out to be 0.15%. The “GVS mass increase at 80% RH” value (80% RH, material of preparation 1) is given as “no mass increase”.

(Values after patent US20110245292A1, “2-HYDROXY-ETHANESULFONATE SALT” (AstraZeneca AB, priority 2008, published 2011).)
